In ChEMBL document CHEMBL3627663, “Synthesis and evaluation of 1-hydroxy/methoxy-4-methyl-2-phenyl-1H-imidazole-5-carboxylic acid derivatives as non-purine xanthine oxidase inhibitors” (Eur J Med Chem, 2015):

How the values were obtained:
[1] = biological target: T1, Xanthine dehydrogenase/oxidase (Bos taurus, UniProt P80457); assay: Inhibition of bovine XO using xanthine as substrate after 120 mins by spectrophotometric analysis
[2] = biological target: T1, Xanthine dehydrogenase/oxidase; assay: Inhibition of bovine XO at 10 ug/ml using xanthine as substrate after 120 mins by spectrophotometric analysis; settings: cattle, 2 h
[3] = biological target: T1, Xanthine dehydrogenase/oxidase; assay: Ratio of Febuxostat IC50 to compound IC50 for bovine XO; settings: cattle
[4] = biological target: T1, Xanthine dehydrogenase/oxidase; assay: Mixed-type inhibition of bovine XO using xanthine as substrate by Lineweaver-Burk plot analysis; settings: cattle

T1 sequence (P80457 whole entry): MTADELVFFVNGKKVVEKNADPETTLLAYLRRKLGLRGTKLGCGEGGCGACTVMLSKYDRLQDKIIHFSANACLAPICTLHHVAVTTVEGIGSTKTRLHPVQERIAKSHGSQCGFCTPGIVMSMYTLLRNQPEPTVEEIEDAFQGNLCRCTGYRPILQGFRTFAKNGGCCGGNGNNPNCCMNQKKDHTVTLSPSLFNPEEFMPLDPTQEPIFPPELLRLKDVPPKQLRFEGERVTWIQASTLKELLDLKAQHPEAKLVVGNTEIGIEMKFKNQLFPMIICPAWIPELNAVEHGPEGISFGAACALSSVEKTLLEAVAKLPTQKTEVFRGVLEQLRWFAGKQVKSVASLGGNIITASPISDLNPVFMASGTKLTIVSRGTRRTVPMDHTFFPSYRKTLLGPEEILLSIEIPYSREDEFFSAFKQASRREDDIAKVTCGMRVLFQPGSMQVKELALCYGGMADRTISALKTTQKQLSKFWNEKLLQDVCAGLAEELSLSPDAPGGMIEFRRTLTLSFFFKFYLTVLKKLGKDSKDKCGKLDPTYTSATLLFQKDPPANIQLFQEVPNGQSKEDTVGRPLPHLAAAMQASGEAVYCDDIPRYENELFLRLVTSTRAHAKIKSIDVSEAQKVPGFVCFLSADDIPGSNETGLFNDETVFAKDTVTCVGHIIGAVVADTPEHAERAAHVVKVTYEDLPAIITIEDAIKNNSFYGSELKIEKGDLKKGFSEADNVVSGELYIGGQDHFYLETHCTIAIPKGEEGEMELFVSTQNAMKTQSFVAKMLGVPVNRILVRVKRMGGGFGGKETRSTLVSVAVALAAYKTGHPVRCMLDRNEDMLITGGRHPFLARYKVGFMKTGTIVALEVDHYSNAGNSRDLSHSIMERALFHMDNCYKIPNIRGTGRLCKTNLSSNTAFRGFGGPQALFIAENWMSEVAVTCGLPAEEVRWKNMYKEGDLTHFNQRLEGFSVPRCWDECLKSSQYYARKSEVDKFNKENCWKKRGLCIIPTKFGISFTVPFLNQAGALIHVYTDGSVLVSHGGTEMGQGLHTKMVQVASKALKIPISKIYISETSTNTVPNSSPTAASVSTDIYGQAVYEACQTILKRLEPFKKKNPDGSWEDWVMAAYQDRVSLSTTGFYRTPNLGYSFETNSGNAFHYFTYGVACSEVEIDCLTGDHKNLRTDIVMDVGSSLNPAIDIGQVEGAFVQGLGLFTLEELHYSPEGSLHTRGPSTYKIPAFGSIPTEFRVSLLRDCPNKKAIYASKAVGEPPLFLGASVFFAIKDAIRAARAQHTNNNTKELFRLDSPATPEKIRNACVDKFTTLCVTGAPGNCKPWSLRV

SMILES | IC50 [1] | inhibition (INH) [2] | inhibition (INH) [4] | inhibition (INH) ([1]; cattle, 2 h) | Ratio IC50 [3]
COc1ccc(-c2nc(C)c(C(=O)O)n2O)cc1C#N | 0.55 µM | 90.14% |  |  | 
CCCOc1ccc(-c2nc(C)c(C(=O)O)n2O)cc1C#N | 0.13 µM | 89.77% |  |  | 
Cc1nc(-c2ccc(OC(C)C)c(C#N)c2)n(O)c1C(=O)O | 0.17 µM | 91.04% |  |  | 
CCCCOc1ccc(-c2nc(C)c(C(=O)O)n2O)cc1C#N | 0.003 µM | 89.57% |  |  | 3.3
CCC(C)Oc1ccc(-c2nc(C)c(C(=O)O)n2O)cc1C#N (stereo not drawn) | 0.003 µM | 88.33% |  |  | 3.3
CCCCCCOc1ccc(-c2nc(C)c(C(=O)O)n2O)cc1C#N | 0.03 µM | 92.51% |  |  | 
CCCCCCCOc1ccc(-c2nc(C)c(C(=O)O)n2O)cc1C#N | 0.11 µM | 89.93% |  |  | 
CCCCCCCCOc1ccc(-c2nc(C)c(C(=O)O)n2O)cc1C#N | 1.2 µM | 88.17% |  |  | 
Cc1ccc(COc2ccc(-c3nc(C)c(C(=O)O)n3O)cc2C#N)cc1 | 0.11 µM | 91.65% |  |  | 
COn1c(-c2ccc(OCc3ccc(C)cc3)c(C#N)c2)nc(C)c1C(=O)O | 1.1 µM | 86.72% |  |  | 
Cc1nc(-c2ccc(OCC(C)C)c(C#N)c2)sc1C(=O)O [FEBUXOSTAT] |  | 90.89% |  |  | 

Continued, in another order:

IC50 [1] | inhibition (INH) [2] | inhibition (INH) [4] | inhibition (INH) ([1]; cattle, 2 h) | SMILES | Ratio IC50 [3]
0.006 µM | 94.08% | Active | Dose-dependent effect | Cc1nc(-c2ccc(OCC(C)C)c(C#N)c2)n(O)c1C(=O)O | 1.7
0.03 µM | 91.25% |  |  | Cc1nc(-c2ccc(OCCC(C)C)c(C#N)c2)n(O)c1C(=O)O | 
 | 10.68% |  |  | COc1ccc(-c2nc(C)c(C(=O)O)n2OC)cc1C#N | 
 | 18.34% |  |  | CCCOc1ccc(-c2nc(C)c(C(=O)O)n2OC)cc1C#N | 
 | 32.91% |  |  | COn1c(-c2ccc(OC(C)C)c(C#N)c2)nc(C)c1C(=O)O | 
 | 41.19% |  |  | CCCCOc1ccc(-c2nc(C)c(C(=O)O)n2OC)cc1C#N | 
1.5 µM | 83.13% |  |  | CCC(C)Oc1ccc(-c2nc(C)c(C(=O)O)n2OC)cc1C#N (stereo not drawn) | 
 | 31.91% |  |  | COn1c(-c2ccc(OCC(C)C)c(C#N)c2)nc(C)c1C(=O)O | 
8 µM | 59.55% |  |  | COn1c(-c2ccc(OCCC(C)C)c(C#N)c2)nc(C)c1C(=O)O | 
3.9 µM | 80.34% |  |  | CCCCCCOc1ccc(-c2nc(C)c(C(=O)O)n2OC)cc1C#N | 
 | 26.8% |  |  | CCCCCCCOc1ccc(-c2nc(C)c(C(=O)O)n2OC)cc1C#N | 
 | 19% |  |  | CCCCCCCCOc1ccc(-c2nc(C)c(C(=O)O)n2OC)cc1C#N | 
